Several values for one entry are separate records, joined by “and”; a condition that tells them apart may be missing. Identical values can stand only once. Inconclusive results and toxic doses are left out.
Test system: P388 leukemia ip, CD2F1 mice, survival T/C
Assay: NCI In Vivo Anticancer Drug Screen. Data for tumor model P388 Leukemia (intraperitoneal) in CD2F1 (CDF1) mice
Details: endpoint: median survival time, higher = longer survival
How it was run: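 Mice carrying the transplanted tumor received test compound or vehicle. Survival was recorded in each group, and the value is the treated-group measurement divided by that of the vehicle-treated control group.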

[1] = dose: 100.0 mg/kg/injection, schedule: Q04DX002 (ip), vehicle: saline
[2] = dose: 60.0 mg/kg/injection, schedule: Q01DX005 (ip), vehicle: saline with Tween-80
[3] = dose: 120.0 mg/kg/injection, schedule: Q01DX005 (ip), vehicle: saline with Tween-80
[4] = dose: 240.0 mg/kg/injection, schedule: Q01DX005 (ip), vehicle: saline with Tween-80
[5] = dose: 25.0 mg/kg/injection, schedule: Q01DX001 (ip), vehicle: saline
[6] = dose: 50.0 mg/kg/injection, schedule: Q01DX009 (ip), vehicle: saline with Tween-80
[7] = dose: 100.0 mg/kg/injection, schedule: Q01DX009 (ip), vehicle: saline with Tween-80
[8] = dose: 200.0 mg/kg/injection, schedule: Q01DX009 (ip), vehicle: saline with Tween-80

SMILES: Clc1cc(Cl)c2n[se]nc2n1
- T/C (dose: 25.0 mg/kg/injection, schedule: Q04DX002 (ip), vehicle: saline): 100 % of control
- T/C (dose: 50.0 mg/kg/injection, schedule: Q04DX002 (ip), vehicle: saline): 106 % of control
- T/C [1]: 116 % of control and 123 % of control

SMILES: Cc1c2cc[n+](C)cc2c(C)c2c1[nH]c1ccc(O)c(-[n+]3ccccc3)c12
- T/C (dose: 2.5 mg/kg/injection, schedule: Q04DX003 (ip), vehicle: saline): 113 % of control
- T/C (dose: 5.0 mg/kg/injection, schedule: Q04DX003 (ip), vehicle: saline): 111 % of control

SMILES: CC(=O)C(F)(F)C(F)(F)C(F)(F)C(F)(F)C(C)=O
- T/C [2]: 99 % of control
- T/C [3]: 94 % of control
- T/C [4]: 103 % of control

SMILES: CCSC(=Nc1nc2ccc([N+](=O)[O-])cc2s1)SCC
- T/C (dose: 6.25 mg/kg/injection, schedule: Q01DX009 (ip), vehicle: Klucel (hydroxypropylcellulose) (HPC)): 104 % of control
- T/C (dose: 12.5 mg/kg/injection, schedule: Q01DX009 (ip), vehicle: Klucel (hydroxypropylcellulose) (HPC)): 111 % of control
- T/C (dose: 25.0 mg/kg/injection, schedule: Q01DX009 (ip), vehicle: Klucel (hydroxypropylcellulose) (HPC)): 98 % of control

SMILES: O=S(=O)(O)C1CCC(O)C2[N-]CCCC21.O=S(=O)(O)C1CCC(O)C2[N-]CCCC21.[Ni+2] (stereo not drawn)
- T/C [5]: 100 % of control
- T/C (dose: 50.0 mg/kg/injection, schedule: Q01DX001 (ip), vehicle: saline): 100 % of control
- T/C (dose: 100.0 mg/kg/injection, schedule: Q01DX001 (ip), vehicle: saline): 110 % of control

SMILES: CCOC(=O)N1CCc2cc3c(cc2C1Cc1ccc(OC)c(OC)c1CCl)OCO3 (stereo not drawn)
- T/C (dose: 50.0 mg/kg/injection, schedule: Q01DX005 (ip), vehicle: saline with Tween-80): 100 % of control
- T/C (dose: 100.0 mg/kg/injection, schedule: Q01DX005 (ip), vehicle: saline with Tween-80): 92 % of control

SMILES: COc1ncc[n+]([O-])n1
- T/C [6]: 103 % of control
- T/C [7]: 100 % of control and 108 % of control and 111 % of control
- T/C [8]: 100 % of control and 102 % of control and 123 % of control
- T/C (dose: 400.0 mg/kg/injection, schedule: Q01DX009 (ip), vehicle: saline with Tween-80): 93 % of control

SMILES: O=C(CN1CCN(CCO)CC1)N1c2ccccc2Sc2ccc(C(F)(F)F)cc21
- T/C [1]: 101 % of control
- T/C (dose: 200.0 mg/kg/injection, schedule: Q04DX002 (ip), vehicle: saline): 90 % of control

SMILES: S=c1[nH]c2ccccc2n2cccc12
- T/C (dose: 50.0 mg/kg/injection, schedule: Q01DX009 (ip), vehicle: Klucel (hydroxypropylcellulose) (HPC)): 108 % of control
- T/C (dose: 100.0 mg/kg/injection, schedule: Q01DX009 (ip), vehicle: Klucel (hydroxypropylcellulose) (HPC)): 108 % of control
- T/C (dose: 200.0 mg/kg/injection, schedule: Q01DX009 (ip), vehicle: Klucel (hydroxypropylcellulose) (HPC)): 106 % of control

SMILES: COc1cc2c(cc1OC)C13CCN4C=C5CCOC6CC(=O)N2C1C6C5CC43 (stereo not drawn)
- T/C (dose: 15.0 mg/kg/injection, schedule: Q01DX005 (ip), vehicle: saline): 97 % of control
- T/C (dose: 30.0 mg/kg/injection, schedule: Q01DX005 (ip), vehicle: saline): 98 % of control
- T/C (dose: 60.0 mg/kg/injection, schedule: Q01DX005 (ip), vehicle: saline): 100 % of control and 103 % of control

SMILES: CC(C)C(=O)N[C@H]1C[C@H]2CCC1(C)C2(C)C
- T/C (dose: 50.0 mg/kg/injection, schedule: Q01DX005 (ip), vehicle: Klucel (hydroxypropylcellulose) (HPC)): 103 % of control and 93 % of control
- T/C (dose: 100.0 mg/kg/injection, schedule: Q01DX005 (ip), vehicle: Klucel (hydroxypropylcellulose) (HPC)): 107 % of control and 96 % of control
- T/C (dose: 200.0 mg/kg/injection, schedule: Q01DX005 (ip), vehicle: Klucel (hydroxypropylcellulose) (HPC)): 111 % of control and 95 % of control

SMILES: CCOC(=O)C(Cc1c[nH]c2ccccc12)NC(=O)[C@@]1(O)[C@H](O)[C@]2(CC)C=CCN3CC[C@@]4(c5cc([C@@]6(C(=O)OC)C[C@@H]7CN(CCc8c6[nH]c6ccccc86)C[C@](O)(CC)C7)c(OC)cc5N(C)[C@@H]14)[C@@H]32 (stereo partly drawn)
- T/C (dose: 1.0 mg/kg/injection, schedule: Q01DX001 (ip), vehicle: saline): 108 % of control and 109 % of control
- T/C (dose: 2.0 mg/kg/injection, schedule: Q01DX001 (ip), vehicle: saline): 108 % of control and 112 % of control
- T/C (dose: 4.0 mg/kg/injection, schedule: Q01DX001 (ip), vehicle: saline): 109 % of control and 116 % of control
- T/C (dose: 8.0 mg/kg/injection, schedule: Q01DX001 (ip), vehicle: saline): 115 % of control and 118 % of control
- T/C (dose: 32.0 mg/kg/injection, schedule: Q01DX001 (ip), vehicle: saline): 153 % of control and 157 % of control

SMILES: COc1cc2c3c4c1OCc1c5c(cc(c1-4)CC3[N+](C)(C)CC2)OCO5 (stereo not drawn)
- T/C [5]: 100 % of control

SMILES: CN1CCOP(=O)(Oc2ccccc2)N1 (stereo not drawn)
- T/C [2]: 103 % of control
- T/C [3]: 99 % of control
- T/C [4]: 100 % of control

SMILES: CCN(CC)Cc1cc(C)c(O)c(N=Nc2ccc3c(c2)c2ccccc2n3CC)c1C
- T/C [6]: 102 % of control
- T/C [7]: 110 % of control
- T/C [8]: 101 % of control

Source: PubChem BioAssay AID330 (DTP/NCI, 2004)
